Source: patent US20050232915A1, “Matrix metalloproteinase inhibitors in combination with hypothermia and/or radiotherapy for the treatment of cancer” (priority 2002, published 2005)

Tests used:
Panc-1 cells [1] = test: Growth and viability of Panc-1 cells (cell proliferation assay); format: cell-based, human; conditions: concentrations up to 10 μM
Protocol: Cell proliferation is evaluated by measuring the fluorescence intensity of propidium iodide (PI) as described previously by Zhang et al. (Cancer Lett., 142: 129-137, 1999) with minor modifications. Briefly, cells are seeded in 24-well plates at a density of 3×10^4 cells per well. After overnight cultivation, cells are irradiated and cultured for 4 days. PI (30 μM) and digitonin ([…]) are added to each well to label all nuclei of the cells with PI. Fluorescence intensity corresponding to total cells in each well is measured by a multi-well plate-reader, CYTOFLUOR II (PerSeptive Biosystems Inc., Framingham, Mass., USA) with 530-nm excitation and 645-nm emission filters. The cell proliferation rate is calculated as the proportion of fluorescence intensity of each well at the time point indicated in the text to that at the day of irradiation.
(§1) Finally, we test whether a synthetic MMP inhibitor, N-hydroxy-2(R)-[[4 methoxyphenylsulfonyl](3-picolyl)amino]-3-methyl-butaneamide hydrochloride) monohydrate, could prevent the radiation-enhanced invasiveness. N-hydroxy-2(R)-[[4-methoxyphenylsulfonyl](3-picolyl)amino]-3-methyl-butaneamide hydrochloride) monohydrate is added to invasion chambers at final concentrations of 1, 5, and 10 μm just before irradiation.

MMP-2 [2] = target: T1, MMP-2 (Homo sapiens, UniProt P08253); test: Gelatin zymography of conditioned medium from Panc-1 cells; format: cell-based; conditions: 5 μM, Panc-1 conditioned medium
T1 construct: The conditioned medium either from non-irradiated or irradiated Panc-1 cells is concentrated to 10-fold; endogenous in cells; host or cells: Panc-1 cells (conditioned medium)
T1 sequence (P08253 30-660): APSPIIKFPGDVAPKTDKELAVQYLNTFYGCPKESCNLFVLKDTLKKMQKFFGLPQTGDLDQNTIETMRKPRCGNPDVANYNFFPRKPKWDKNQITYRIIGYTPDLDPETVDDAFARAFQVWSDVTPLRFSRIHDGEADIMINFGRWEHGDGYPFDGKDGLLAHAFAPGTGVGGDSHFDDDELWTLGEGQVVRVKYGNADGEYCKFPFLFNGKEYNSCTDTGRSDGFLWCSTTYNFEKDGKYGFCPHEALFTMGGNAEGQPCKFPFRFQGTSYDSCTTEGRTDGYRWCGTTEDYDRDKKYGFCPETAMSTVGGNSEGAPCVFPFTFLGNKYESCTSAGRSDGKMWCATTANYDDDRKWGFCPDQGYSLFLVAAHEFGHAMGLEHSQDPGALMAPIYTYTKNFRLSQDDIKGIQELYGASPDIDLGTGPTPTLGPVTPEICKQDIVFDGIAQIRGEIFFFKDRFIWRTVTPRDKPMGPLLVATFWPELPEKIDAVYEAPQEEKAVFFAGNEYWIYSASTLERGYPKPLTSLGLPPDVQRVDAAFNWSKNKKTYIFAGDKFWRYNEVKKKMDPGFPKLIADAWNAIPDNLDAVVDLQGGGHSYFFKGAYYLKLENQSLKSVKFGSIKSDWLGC
Protocol: (§2) The conditioned medium either from non-irradiated or irradiated Panc-1 cells is concentrated to 10-fold with Centricon-10 (Amico, Beverly, Mass., USA). Samples are added to each lane and subjected to 10% SDS-polyacrylamide gel electrophoresis, using 10% polyacrylamide gel containing 1 mg/ml gelatin. After electrophoresis, the gel is washed in 2.5% Triton X-100, and incubated in 50 mM Tris-HCl buffer (pH8.0) containing 0.5 mM CaCl2 and 1 mM ZnCl2 for 20 hr at 37° C. The gel is stained with 1% Coomassie Brilliant Blue R-250 and destained with destaining buffer (5% acetic acid and 10% methanol).
(§3) To determine the role of gelatinases in the radiation-induced changes in invasive potential, we examine MMPs activity in Panc-1 cells before and after irradiation. Cells are incubated 24 h after irradiation and the conditioned medium is subjected to the gelatin zymography. Untreated Panc-1 cells secrete both latent and active forms of MMP-2 (72 kDa and 62 kDa gelatinases).
as §1

MMP-2 [3] = target: T2, MMP-2 (Homo sapiens, UniProt P08253); test: as above; format: cell-based; conditions: 5 μM, Panc-1 conditioned medium; remark: listed apart in the source
T2 construct: The conditioned medium either from non-irradiated or irradiated Panc-1 cells is concentrated to 10-fold; endogenous in cells; host or cells: Panc-1 cells (conditioned medium)
T2 sequence (P08253 110-660): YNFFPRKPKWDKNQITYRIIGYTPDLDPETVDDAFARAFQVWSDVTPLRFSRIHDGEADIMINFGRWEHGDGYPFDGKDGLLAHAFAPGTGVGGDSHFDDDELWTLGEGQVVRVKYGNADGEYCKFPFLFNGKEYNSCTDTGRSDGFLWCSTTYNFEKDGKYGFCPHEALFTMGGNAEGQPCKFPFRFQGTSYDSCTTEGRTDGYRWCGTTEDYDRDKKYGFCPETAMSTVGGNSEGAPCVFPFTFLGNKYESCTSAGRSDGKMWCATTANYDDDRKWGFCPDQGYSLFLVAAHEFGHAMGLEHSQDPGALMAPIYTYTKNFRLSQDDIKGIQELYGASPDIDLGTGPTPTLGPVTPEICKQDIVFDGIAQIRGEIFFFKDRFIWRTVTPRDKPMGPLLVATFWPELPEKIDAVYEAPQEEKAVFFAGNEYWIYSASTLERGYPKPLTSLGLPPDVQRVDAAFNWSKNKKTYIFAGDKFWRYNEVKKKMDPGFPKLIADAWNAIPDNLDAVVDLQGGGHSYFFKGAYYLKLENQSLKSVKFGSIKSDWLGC
Protocol: as §2, §3, §1

Panc-1 cells [4] = test: Matrigel invasion assay after irradiation; format: cell-based, human; conditions: Panc-1, irradiation at 5 Gy, inhibitor at 5 and 10 μM added just before irradiation, 24 h
Protocol: The cells are irradiated with doses of 3, 5, or 10 Gy at room temperature using a ^137Cs source (Gamma Cell 40, Atomic Energy of Canada Ltd., Ontario, Canada) delivering 1.0 Gy/min.
Invasion of pancreatic cancer cells is measured by the invasion of cells through Matrigel-coated transwell inserts (Becton Dickinson, Franklin Lakes, N.J., USA) (Sato et al and Maehara et al ibid).
Briefly, transwell inserts with 8 μm pore are coated with Matrigel (40 μg/well, Becton Dickinson, Bedford, Mass., USA). Five hundred μl of cell suspension (1×10^5/ml) are added to the upper chambers. Same media of 750 μl are placed in the lower wells. Thereafter, the cells are irradiated and incubated for 24 h. Cells that have invaded to lower surface of the Matrigel-coated membrane are fixed with 70% ethanol, stained with H&E, and counted in five random fields under a light microscope.
as §1

## COc1ccc(S(=O)(=O)N(Cc2cccnc2)[C@@H](C(=O)NO)C(C)C)cc1.Cl.O [N-hydroxy-2(R)-[[4-methoxyphenylsulfonyl](3-picolyl)amino]-3-methyl-butaneamide hydrochloride)monohydrate]
Panc-1 cells [1]
  growth and viability of Panc-1 cells: does not affect the growth and viability
MMP-2 [2]
  enzymatic activity of latent type MMP-2 (gelatin zymography): without affecting
MMP-2 [3]
  active type MMP-2 (gelatin zymography): markedly decreases
Panc-1 cells [4]
  increase in invaded cells after irradiation (radiation-enhanced invasion): significantly block the increase in invaded cells after irradiation
